According to US5422341A, “Motilin-like polypeptides with gastrointestinal motor stimulating activity” (Ohmeda Pharmaceutical Products Division Inc., priority 1993, dated 1995):
Square brackets hold non-standard residues; d marks the D form. Peptide text beside a SMILES is read from it. * marks the point of attachment. X1 = C[N+](C)(C)[C@@H](Cc1ccccc1)C(=O)*; NMeF = CN[C@@H](Cc1ccccc1)C(=O)O

Legend:
[1] = biological target: T1, motilin receptor (Oryctolagus cuniculus, UniProt G1T803); experiment: Determination of motilin receptor binding affinity (displacement of [125I-Tyr7, Nle13]motilin(porcine)); set-up: species or system rabbit; conditions: negative logarithm of the concentration displacing 50% of [125I-Tyr7, Nle13]motilin(porcine) from rabbit antral smooth muscle membranes; read-out: pIC50 (converted)
T1 construct: from tissue; host or cells: rabbit antral smooth muscle membranes
T1 sequence (G1T803 1-400): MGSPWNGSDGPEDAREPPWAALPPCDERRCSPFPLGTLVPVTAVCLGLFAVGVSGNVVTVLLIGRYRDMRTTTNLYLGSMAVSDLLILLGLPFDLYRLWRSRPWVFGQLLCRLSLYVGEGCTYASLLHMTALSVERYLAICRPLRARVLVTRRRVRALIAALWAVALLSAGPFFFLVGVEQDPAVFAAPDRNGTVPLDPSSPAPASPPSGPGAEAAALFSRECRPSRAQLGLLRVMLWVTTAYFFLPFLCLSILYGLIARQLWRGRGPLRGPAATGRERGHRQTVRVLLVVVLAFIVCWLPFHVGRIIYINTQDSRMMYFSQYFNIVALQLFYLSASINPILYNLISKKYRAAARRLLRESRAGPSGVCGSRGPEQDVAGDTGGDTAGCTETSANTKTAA
Procedure: The motilin receptor binding affinity of the peptides of this invention was determined by using the general procedure of Bormans, Peelers and Vantrappen, Regul. […] Fitting was performed using the iterative least-squares procedure of the SAS-software package (SAS Institute, Inc., Cary, N.C., USA).

[2] = biological target: segments of rabbit duodenum (Oryctolagus cuniculus, UniProt G1T803); experiment: Rabbit duodenal smooth muscle strip tissue bath assay; type: cell-based; conditions: negative logarithm of the dose giving 50% of the maximal response to motilin; isotonic contraction of rabbit duodenum segments
Sequence of segments of rabbit duodenum (G1T803 1-400): as above
Procedure, shortened: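 Isotonic contraction of rabbit duodenal segments after 1 h equilibration and 10^-4 M acetylcholine challenge; cumulative compound curve over 10^-11 to 10^-4 M, then 10^-7 M motilin. Runs discarded if final acetylcholine response differed >5%. EC50 at 50% of maximal motilin response, reported as pEC50.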

[3] = type: in vitro ADME, hog; conditions: pH 7
Procedure: Like most small linear polypeptides, motilin is believed to be metabolized lo by the brush border cells of the kidney. Therefore, kidney homogenate was chosen as the model system for assessing the relative in vivo biostability of the peptides of this invention. All peptides to be studied were incubated in hog kidney (Pel Freeze, Inc., Rogers, Ark.) (2% w/v; final volume=4 ml; buffer=HEPES pH 7.0) at 25° C. Both initial substrate concentration and internal standard (Fmoc-Gly) concentration were 0.5 mg/ml. In order to determine suitable incubation times and sampling intervals, two experiments were conducted with each polypeptide. The first run served as a rough estimate of peptide stability. All sampling was performed in duplicate. Sample volume was 180 μl.
Sample clean-up was performed by addition of 20 μl of 100% TCA (final volume=200 μl; final TCA concentration=10%). The sample was vortexed for from 5 to 10 seconds to ensure equilibration, then centrifuged to spin out the precipitated proteins. Analysis was carried out on a Waters HPLC system with a WISP autoinjector, a 5μ Vydac C-18 analytical column, and a Waters 481 UV detector set at 214 nm. Injection volume was 80 μl. Initial solvent conditions were […] in Milli-Q water with a 35 minute gradient running to 63% acetonitrile/37% (0.1%) TFA at 1 ml/min.
Polypeptide substrate and metabolite peaks were ratioed to the internal standard and the duplicate sample ratios were averaged. The avenge ratio for the peptide substrate was expressed as a percentage and plotted versus time. First-order kinetics was assumed for data treatment. The rate of disappearance of the substrate was calculated using the Enzfitter program (Biosoft). Relative half-lives were determined from the relationship: […]

[4] = test system: canine gastrointestinal tract; experiment: Contractile activity in the canine gastrointestinal tract; type: in vivo, dog; conditions: anesthetized dogs, intra-arterial injection to a duodenal segment; amount giving 50% of the calibration response to field stimulation
Procedure: Mongrel dogs of either sex were anesthetized with sodium pentobarbital 65 mg/kg intravenously. A mid-line incision was made in the abdomen. A duodenal segment was located, the terminal arteries to that segment were identified, and the closest possible artery of the appropriate size was rubbed clean of fat and fascia. A needle of suitable diameter was bent at an angle and the tip inserted in the cleaned artery. The needle was held in position in the artery for approximately 30 seconds until vascular spasm has relaxed and then a catheter assembly was inserted into the artery and tied into position with 000 silk sutures. The fine polyethylene catheter (10-15 cm) was cut to a point at one end with a needle inserted at the other end. The hub of the needle was fitted with a 3-way stopcock and the catheter assembly was filled with heparinized Krebs Ringer bicarbonate containing 10 mM glucose. A bolus of Krebs (free of air) was injected into the arterial catheter and the distribution of blanching in the segment noted. If the area was too large, collateral arteries may be tied off as long as circulation to the area was maintained. A Bass type strain gauge was then sutured to the serosa, and oriented so that circular muscle contractions can be recorded on a Beckman R611 dynograph. Silver wire electrodes were inserted subserosally on either side of the strain gauge and were connected through stimulus isolation units to a Grass S88 electrical stimulator. Electrical field stimulation was applied at 40 V 0.5 ms and 5 pps and the amplitude of the pen recorder was set to contain the contractile response.
All peptides to be injected were dissolved in Krebs and serial dilutions were prepared so that for any concentration the maximum volume to be injected was 1 ml. All solutions except stock Krebs were held on ice for the day of the experiment and discarded at the end of the day. For determination of a dose-response curve, the site was first injected with a bolus of approximately 1 ml of heparinized Krebs to provide a flush control. Peptide agonists (in volumes of 1 ml flushed with 1 ml of Krebs) were injected in logarithmic increments until a response which was maximal in amplitude was obtained. The injection site was then flushed with Krebs containing 0.1% BSA to displace any peptide remaining in the arterial line. For peptides acting at the motilin receptor, care was taken not to inject supramaximal doses as these will induce tachyphylaxis. Therefore, as responses become apparent, 0.3 or 0.5 log unit increments were used. A site was used for a dose-response determination only every 1/2 to 1 hour.
The amplitude of the calibration response to field stimulation in each site was measured and used as 100% for that site. The amplitude of the response to the agonist at each dose was determined, calculated as a % of the calibration response and plotted against the concentration. The ED50 of the response represents the amount of agonist required to produce a response which was 50% of the calibration response.

Compound | IC50 [1] | pEC50 [2] | T1/2 [3] | ED50 [4]
CC[C@H](C)[C@H](NC(=O)[C@@H]1CCCN1C(=O)[C@@H](NC(=O)[C@H](Cc1ccccc1)[N+](C)(C)C)C(C)C)C(=O)N[C@@H](Cc1ccccc1)C(=O)N[C@H](C(=O)N[C@@H](Cc1ccc(O)cc1)C(=O)NCC(=O)N[C@@H](CCC(=O)O)C(=O)N[C@@H](CC(C)C)C(=O)N[C@@H](CCC(N)=O)C(=O)N[C@H](CCCNC(=N)N)C(=O)N[C@@H](CC(C)C)C(=O)N[C@H](CCC(N)=O)C(N)=O)[C@@H](C)O (X1-VPIFTYGELQ[dR]L[dQ]-NH2) | 1.95 nM | 7.39 | 104 | –
CC[C@H](C)[C@H](NC(=O)[C@@H]1CCCN1C(=O)[C@@H](NC(=O)[C@H](Cc1ccccc1)NC)C(C)C)C(=O)N[C@@H](Cc1ccccc1)C(=O)N[C@H](C(=O)N[C@@H](Cc1ccc(O)cc1)C(=O)NCC(=O)N[C@@H](CCC(=O)O)C(=O)N[C@@H](CC(C)C)C(=O)N[C@@H](CCC(N)=O)C(=O)N[C@H](CCCNC(=N)N)C(=O)N[C@@H](CC(C)C)C(=O)N[C@@H](CCCCN)C(N)=O)[C@@H](C)O (H-[NMeF]VPIFTYGELQ[dR]LK-NH2) | – | – | 41 | 0.025 nmol
CC[C@H](C)[C@H](NC(=O)[C@@H]1CCCN1C(=O)[C@@H](NC(=O)[C@H](Cc1ccccc1)[N+](C)(C)C)C(C)C)C(=O)N[C@@H](Cc1ccccc1)C(=O)N[C@H](C(=O)N[C@@H](Cc1ccc(O)cc1)C(=O)NCC(=O)N[C@@H](CCC(=O)O)C(=O)N[C@@H](CC(C)C)C(=O)N[C@@H](CCC(N)=O)C(=O)N[C@H](CCCNC(=N)N)C(=O)N[C@@H](CC(C)C)C(=O)N[C@@H](CCCCN)C(N)=O)[C@@H](C)O (X1-VPIFTYGELQ[dR]LK-NH2) | 1.17 nM | 7.60 | 162 | 0.15 nmol
CC[C@H](C)[C@H](NC(=O)[C@@H]1CCCN1C(=O)[C@@H](NC(=O)[C@H](Cc1ccccc1)NC)C(C)C)C(=O)N[C@@H](Cc1ccccc1)C(=O)N[C@H](C(=O)N[C@@H](Cc1ccc(O)cc1)C(=O)NCC(=O)N[C@@H](CCC(=O)O)C(=O)N[C@@H](CC(C)C)C(=O)N[C@@H](CCC(N)=O)C(=O)N[C@@H](CCCNC(=N)N)C(=O)N[C@@H](CC(C)C)C(=O)N[C@@H](CCC(N)=O)C(=O)O)[C@@H](C)O [[N-MePhe^1, Leu^13]pMOT(1-14)] (H-[NMeF]VPIFTYGELQRLQ-OH) | 2.63 nM | 7.64 | 12.8 | –
CC[C@H](C)[C@H](NC(=O)[C@@H]1CCCN1C(=O)[C@@H](NC(=O)[C@H](Cc1ccccc1)NC)C(C)C)C(=O)N[C@@H](Cc1ccccc1)C(=O)N[C@H](C(=O)N[C@@H](Cc1ccc(O)cc1)C(=O)NCC(=O)N[C@@H](CCC(=O)O)C(=O)N[C@@H](CC(C)C)C(=O)N[C@@H](C)C(=O)N[C@H](CCCNC(=N)N)C(=O)N[C@@H](CC(C)C)C(=O)N[C@@H](CCCCN)C(N)=O)[C@@H](C)O (H-[NMeF]VPIFTYGELA[dR]LK-NH2) | 0.468 nM | 8.01 | 34.3 | 0.30 nmol
CC[C@H](C)[C@H](NC(=O)[C@@H]1CCCN1C(=O)[C@@H](NC(=O)[C@H](Cc1ccccc1)[N+](C)(C)C)C(C)C)C(=O)N[C@@H](Cc1ccccc1)C(=O)N[C@H](C(=O)N[C@@H](Cc1ccc(O)cc1)C(=O)NCC(=O)N[C@@H](CCC(=O)O)C(=O)N[C@@H](CC(C)C)C(=O)N[C@@H](C)C(=O)N[C@H](CCCNC(=N)N)C(=O)N[C@@H](CC(C)C)C(=O)N[C@@H](CCC(N)=O)C(N)=O)[C@@H](C)O (X1-VPIFTYGELA[dR]LQ-NH2) | – | – | 131.9 | 0.026 nmol
CC[C@H](C)[C@H](NC(=O)[C@@H]1CCCN1C(=O)[C@@H](NC(=O)[C@H](Cc1ccccc1)[N+](C)(C)C)C(C)C)C(=O)N[C@@H](Cc1ccccc1)C(=O)N[C@H](C(=O)N[C@@H](Cc1ccc(O)cc1)C(=O)NCC(=O)N[C@@H](CCC(=O)O)C(=O)N[C@@H](CC(C)C)C(=O)N[C@@H](CCC(N)=O)C(=O)N[C@H](CCCNC(=N)N)C(=O)N[C@@H](CC(C)C)C(=O)N[C@@H](CCC(N)=O)C(N)=O)[C@@H](C)O (X1-VPIFTYGELQ[dR]LQ-NH2) | – | – | 95 | 0.017 nmol
